Values of other authors, collected in US20210369646A1, “Composition for local tumescent anesthesia” (priority 2020, published 2021).
Where two headings read alike, the source gives them in different places.

What was measured:
plasminogen = plasminogen (Homo sapiens, UniProt P00747)
[1] = test system: alpha 1 acid glycoprotein; conditions: bound to alpha 1 acid glycoprotein almost entirely

plasminogen, sequence (P00747 20-810 limits assumed): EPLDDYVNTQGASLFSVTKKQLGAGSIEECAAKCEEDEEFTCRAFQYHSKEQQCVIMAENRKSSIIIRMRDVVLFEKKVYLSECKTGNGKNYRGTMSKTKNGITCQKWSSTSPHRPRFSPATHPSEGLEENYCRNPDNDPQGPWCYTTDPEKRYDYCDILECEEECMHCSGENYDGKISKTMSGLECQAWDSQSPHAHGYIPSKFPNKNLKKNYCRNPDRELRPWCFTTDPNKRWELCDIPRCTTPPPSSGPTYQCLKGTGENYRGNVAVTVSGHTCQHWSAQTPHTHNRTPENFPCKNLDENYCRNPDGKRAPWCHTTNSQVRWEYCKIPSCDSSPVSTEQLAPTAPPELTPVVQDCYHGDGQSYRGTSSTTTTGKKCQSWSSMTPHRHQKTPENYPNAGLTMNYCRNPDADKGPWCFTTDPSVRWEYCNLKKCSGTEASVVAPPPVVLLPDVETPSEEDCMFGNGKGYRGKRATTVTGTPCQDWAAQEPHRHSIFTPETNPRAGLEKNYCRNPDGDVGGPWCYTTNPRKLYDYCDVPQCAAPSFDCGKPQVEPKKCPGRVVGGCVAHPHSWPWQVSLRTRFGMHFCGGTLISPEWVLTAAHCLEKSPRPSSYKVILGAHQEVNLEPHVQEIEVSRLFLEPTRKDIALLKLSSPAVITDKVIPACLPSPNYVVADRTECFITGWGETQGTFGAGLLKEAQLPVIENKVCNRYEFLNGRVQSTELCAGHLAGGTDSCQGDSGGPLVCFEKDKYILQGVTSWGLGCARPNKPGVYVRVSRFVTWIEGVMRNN

NC[C@H]1CC[C@H](C(=O)O)CC1 [Tranexamic acid]
plasmatic protein bound (plasmatic protein): 3% | free protein form (plasmatic protein; in words): no free protein form | affinity to plasminogen (plasminogen): high affinity | middle lifetime (after the administration): 3 h | excreted through the kidneys into the urine without a conjugated form (by the first 24 hours): 90%

CCCN1CCCC[C@H]1C(=O)Nc1c(C)cccc1C [Ropivacaine]
free protein form [1]: 6% | excreted through the kidneys into the urine (in vivo): ~86% | transformed into 3-hydroxy-ropivacaine (aromatic hydroxylation) (liver, share of all anesthetic agent): 99%

CNC[C@H](O)c1ccc(O)c(O)c1 [Epinephrine]
total doses excreted into the urine (after next 18 hours): 50% | total doses excreted into the urine (by the first 6 hours): 50% | middle lifetime (in vivo): 0.00556 h | principal metabolite: conjugated metanephrine (in vivo): 40% | principal metabolite: vanillylmandelic acid (in vivo): 40% | maximum concentration after a subcutaneous injection (time) (subcutaneous injection): 20 to 40 min
